# According to ChEMBL document CHEMBL1165871, “Synthesis of some 5-phenylisoxazole-3-carboxylic acid derivatives as potent xanthine oxidase inhibitors” (Eur J Med Chem, 2010):
# Target: T1, Xanthine dehydrogenase/oxidase (Bos taurus, UniProt P80457)
# Experiment: Inhibition of bovine xanthine oxidase by spectrophotometry
# Settings: not given
# T1 sequence (P80457 whole entry): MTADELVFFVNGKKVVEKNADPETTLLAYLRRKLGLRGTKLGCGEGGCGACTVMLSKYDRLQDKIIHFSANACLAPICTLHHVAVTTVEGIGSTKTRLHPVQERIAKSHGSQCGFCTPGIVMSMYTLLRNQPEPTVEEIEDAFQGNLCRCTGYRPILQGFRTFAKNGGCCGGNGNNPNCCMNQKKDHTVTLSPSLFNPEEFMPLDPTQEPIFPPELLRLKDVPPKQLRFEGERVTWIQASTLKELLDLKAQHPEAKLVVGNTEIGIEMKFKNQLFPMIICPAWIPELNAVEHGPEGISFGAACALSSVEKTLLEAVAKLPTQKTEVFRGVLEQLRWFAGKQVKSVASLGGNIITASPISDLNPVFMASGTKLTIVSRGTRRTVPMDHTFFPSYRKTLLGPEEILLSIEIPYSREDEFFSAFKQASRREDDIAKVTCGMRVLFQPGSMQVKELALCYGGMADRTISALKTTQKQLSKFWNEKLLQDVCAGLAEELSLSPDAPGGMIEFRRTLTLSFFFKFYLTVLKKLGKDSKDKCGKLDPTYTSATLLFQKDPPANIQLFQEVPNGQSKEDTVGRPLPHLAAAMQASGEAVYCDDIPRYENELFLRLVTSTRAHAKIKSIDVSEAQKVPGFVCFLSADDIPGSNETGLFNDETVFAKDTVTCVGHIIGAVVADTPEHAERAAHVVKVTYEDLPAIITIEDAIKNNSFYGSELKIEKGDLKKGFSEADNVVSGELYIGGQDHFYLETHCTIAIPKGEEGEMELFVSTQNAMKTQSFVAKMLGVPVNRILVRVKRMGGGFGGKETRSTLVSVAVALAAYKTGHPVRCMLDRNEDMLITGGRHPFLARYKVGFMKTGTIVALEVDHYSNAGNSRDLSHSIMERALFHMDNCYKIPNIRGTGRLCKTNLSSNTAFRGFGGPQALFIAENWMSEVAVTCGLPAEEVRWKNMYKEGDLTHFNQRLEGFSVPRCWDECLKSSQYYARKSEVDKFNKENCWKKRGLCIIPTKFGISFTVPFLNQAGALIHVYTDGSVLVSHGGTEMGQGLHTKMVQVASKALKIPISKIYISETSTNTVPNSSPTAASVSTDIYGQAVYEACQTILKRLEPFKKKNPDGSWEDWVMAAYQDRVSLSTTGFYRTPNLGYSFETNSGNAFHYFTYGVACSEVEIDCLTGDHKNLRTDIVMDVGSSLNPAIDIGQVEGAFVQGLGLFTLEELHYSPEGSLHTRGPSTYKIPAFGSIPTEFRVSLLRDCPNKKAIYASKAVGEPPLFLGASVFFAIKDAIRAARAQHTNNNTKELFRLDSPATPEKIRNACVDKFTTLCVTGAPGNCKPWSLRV
row,IC50 [nM],Structure (SMILES)
1,1000,CC(C)COc1ccc(-c2cc(C(=O)O)no2)cc1[N+](=O)[O-]
2,12800,CC(C)(C)c1ccc(COc2ccc(-c3cc(C(=O)O)[n-][o+]3)cc2[N+](=O)[O-])cc1
3,590,N#Cc1cc(-c2cc(C(=O)O)no2)ccc1OCc1ccccc1
4,630,N#Cc1cc(-c2cc(C(=O)O)no2)ccc1OCc1ccc(Cl)cc1
5,2830,O=C(O)c1cc(-c2ccc(OCc3ccc(Cl)cc3)c([N+](=O)[O-])c2)on1
6,970,O=C(O)c1cc(-c2ccc(OCc3ccccc3)c([N+](=O)[O-])c2)on1
7,1010,CC(C)(C)c1ccc(COc2ccc(-c3cc(C(=O)O)no3)cc2C#N)cc1

# Target: T1, Xanthine dehydrogenase/oxidase
# Experiment: Inhibition of bovine xanthine oxidase at 10 ug/ml by spectrophotometry
# Settings: cattle
row,inhibition at 10 µg/mL [%],Structure (SMILES)
1,< 50,Cc1ccc(COc2ccc(-c3cc(C(=O)O)no3)cc2[N+](=O)[O-])cc1
2,< 50,Cc1ccc(COc2ccc(-c3cc(C(=O)O)no3)cc2C#N)cc1
